Experimental data published in PMC7827406, “Structure–Activity Relationship (SAR) Study of Spautin-1 to Entail the Discovery of Novel NEK4 Inhibitors” (International Journal of Molecular Sciences, 2021).
Where two headings read alike, the source gives them in different places.

Tests used:
Experiment in all cases: biochemical
Design in all cases: Eurofins KinaseProfiler full panel at Km ATP, residual kinase activity (%) relative to DMSO
[1] = target: T1, MAK(h) (Homo sapiens, UniProt P20794)
T1 sequence (P20794 1-623): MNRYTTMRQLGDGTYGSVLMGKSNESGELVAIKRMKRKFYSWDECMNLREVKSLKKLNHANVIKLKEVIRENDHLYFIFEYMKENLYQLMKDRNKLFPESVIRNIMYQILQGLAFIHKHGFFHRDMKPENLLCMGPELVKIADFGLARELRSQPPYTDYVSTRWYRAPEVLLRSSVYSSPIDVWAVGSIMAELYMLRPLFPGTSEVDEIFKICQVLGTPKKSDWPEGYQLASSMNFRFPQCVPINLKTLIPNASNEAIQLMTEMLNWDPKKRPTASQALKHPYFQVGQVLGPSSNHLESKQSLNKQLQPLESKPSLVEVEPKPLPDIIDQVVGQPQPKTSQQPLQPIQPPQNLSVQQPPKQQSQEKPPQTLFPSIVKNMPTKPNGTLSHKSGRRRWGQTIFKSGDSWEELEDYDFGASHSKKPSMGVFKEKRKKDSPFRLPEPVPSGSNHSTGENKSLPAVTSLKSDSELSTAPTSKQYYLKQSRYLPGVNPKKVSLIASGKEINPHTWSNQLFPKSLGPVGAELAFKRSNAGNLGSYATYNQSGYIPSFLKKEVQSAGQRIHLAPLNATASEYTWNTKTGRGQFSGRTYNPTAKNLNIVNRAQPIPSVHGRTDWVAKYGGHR
Summary of the method: (§1)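 Two 10 µM single-concentration screens were run: a competition-binding screen, in which DNA-tagged kinase bound to immobilized ligands was quantified by qPCR, and a radiometric activity panel at Km ATP. Each is expressed as residual kinase activity (%).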

[2] = target: T2, MOK(h) (Homo sapiens, UniProt Q9UQ07)
T2 sequence (Q9UQ07 1-419): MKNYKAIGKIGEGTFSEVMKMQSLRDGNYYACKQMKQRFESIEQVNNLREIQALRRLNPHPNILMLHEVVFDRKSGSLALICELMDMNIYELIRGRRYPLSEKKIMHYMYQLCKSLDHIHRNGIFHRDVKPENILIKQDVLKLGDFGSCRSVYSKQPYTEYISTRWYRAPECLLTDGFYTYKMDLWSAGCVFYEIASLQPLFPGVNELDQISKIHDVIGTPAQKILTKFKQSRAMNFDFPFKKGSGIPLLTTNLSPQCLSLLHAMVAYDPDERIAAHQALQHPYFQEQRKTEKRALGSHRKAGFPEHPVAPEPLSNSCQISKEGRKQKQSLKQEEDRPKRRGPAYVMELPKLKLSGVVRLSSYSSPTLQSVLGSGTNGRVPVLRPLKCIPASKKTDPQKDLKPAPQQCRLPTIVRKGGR
Summary of the method: as §1

[3] = target: Fes(h) (Homo sapiens, UniProt P07332)
Fes(h), sequence (P07332 whole entry): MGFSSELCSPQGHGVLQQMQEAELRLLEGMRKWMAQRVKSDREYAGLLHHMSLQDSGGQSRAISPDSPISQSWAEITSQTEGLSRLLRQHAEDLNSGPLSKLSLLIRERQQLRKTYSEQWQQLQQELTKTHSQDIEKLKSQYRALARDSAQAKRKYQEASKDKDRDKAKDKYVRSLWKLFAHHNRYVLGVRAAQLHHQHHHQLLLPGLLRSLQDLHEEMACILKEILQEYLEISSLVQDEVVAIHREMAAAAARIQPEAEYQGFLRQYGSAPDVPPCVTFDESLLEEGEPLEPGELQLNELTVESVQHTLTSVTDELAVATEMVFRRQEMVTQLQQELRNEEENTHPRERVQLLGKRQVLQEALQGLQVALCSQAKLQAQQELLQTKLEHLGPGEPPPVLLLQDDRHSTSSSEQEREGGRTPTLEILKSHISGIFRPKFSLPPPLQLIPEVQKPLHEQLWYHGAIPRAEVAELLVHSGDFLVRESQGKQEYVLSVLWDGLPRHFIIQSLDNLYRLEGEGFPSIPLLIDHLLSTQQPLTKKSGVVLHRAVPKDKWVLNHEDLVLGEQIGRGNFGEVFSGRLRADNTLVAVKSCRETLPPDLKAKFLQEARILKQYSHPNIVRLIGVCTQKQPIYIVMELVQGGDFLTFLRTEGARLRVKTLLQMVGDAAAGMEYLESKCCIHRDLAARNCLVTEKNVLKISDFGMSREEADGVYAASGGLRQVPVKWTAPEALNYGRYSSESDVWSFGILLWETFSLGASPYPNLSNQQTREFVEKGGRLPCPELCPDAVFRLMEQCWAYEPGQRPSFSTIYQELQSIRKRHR
Summary of the method: as §1

[4] = target: T3, NEK3(h) (Homo sapiens, UniProt P51956)
T3 sequence (P51956 1-506): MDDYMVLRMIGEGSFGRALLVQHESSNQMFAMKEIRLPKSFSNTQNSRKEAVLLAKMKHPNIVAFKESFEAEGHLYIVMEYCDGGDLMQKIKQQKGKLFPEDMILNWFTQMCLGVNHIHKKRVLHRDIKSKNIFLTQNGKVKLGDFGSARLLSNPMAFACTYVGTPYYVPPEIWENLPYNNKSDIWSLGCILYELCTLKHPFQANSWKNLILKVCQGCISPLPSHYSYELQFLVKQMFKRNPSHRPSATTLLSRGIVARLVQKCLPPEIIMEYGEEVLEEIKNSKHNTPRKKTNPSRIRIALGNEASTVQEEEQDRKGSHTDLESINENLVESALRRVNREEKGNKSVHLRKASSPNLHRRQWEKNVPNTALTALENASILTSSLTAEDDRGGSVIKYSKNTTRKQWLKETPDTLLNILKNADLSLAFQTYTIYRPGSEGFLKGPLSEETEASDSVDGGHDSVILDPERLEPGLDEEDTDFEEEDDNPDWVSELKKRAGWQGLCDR
Summary of the method: as §1

[5] = read-out: Residual activity (%) 5at
[6] = read-out: Residual activity (%) 5as
[7] = read-out: Residual activity (%) 5ay
[8] = read-out: Residual activity (%) Spautin-1 5aa

Molecule `Fc1ccc2ncnc(NCCc3ccc(Cl)cc3)c2c1` [5at, N-[2-(4-Chlorophenyl)Ethyl]-6-Fluoro-4-Quinazolinamine] has a remaining activity at 10 µM [1, 5] of 76%, a remaining activity at 10 µM [2, 5] of 100% and a remaining activity at 10 µM [3, 5] of 81%. It also gave a remaining activity at 10 µM [4, 5] of 99%.

For `Fc1ccc(CCNc2ncnc3ccc(F)cc23)cc1` [5as, 6-Fluoro-N-[2-(4-Fluorophenyl)Ethyl]-4-Quinazolinamine], the remaining activity at 10 µM [1, 6] was 77%, the remaining activity at 10 µM [2, 6] was 86% and the remaining activity at 10 µM [3, 6] was 92%. It also gave a remaining activity at 10 µM [4, 6] of 80%.

Molecule `COc1ccc2ncnc(Nc3cccc(F)c3)c2c1` [5ay, N-(3-Fluorophenyl)-6-Methoxy-4-Quinazolinamine] has a remaining activity at 10 µM [1, 7] of 74%, a remaining activity at 10 µM [2, 7] of 65% and a remaining activity at 10 µM [3, 7] of 93%. The remaining activity at 10 µM [4, 7] was 87%.

`Fc1ccc(CNc2ncnc3ccc(F)cc23)cc1` [5aa, 6-Fluoro-N-(4-fluorobenzyl)-4-Quinazolinamine] gave a remaining activity at 10 µM [1, 8] of 89%, a remaining activity at 10 µM [2, 8] of 89% and a remaining activity at 10 µM [3, 8] of 91%. The remaining activity at 10 µM [4, 8] was 71%.
